Tests used:
VMAT2 [1] = molecular target: T1, VMAT2 (Rattus norvegicus, UniProt Q01827); conditions: cited from earlier work
[2] = cited from earlier work
METH self-administration = conditions: rats; cited from earlier work
[3] = test system: sucrose-maintained responding; conditions: rats; cited from earlier work
VMAT2 [4] = molecular target: T1, VMAT2; test: Vesicular [^3H]DA uptake assay; type: biochemical

T1 sequence (Q01827 whole entry): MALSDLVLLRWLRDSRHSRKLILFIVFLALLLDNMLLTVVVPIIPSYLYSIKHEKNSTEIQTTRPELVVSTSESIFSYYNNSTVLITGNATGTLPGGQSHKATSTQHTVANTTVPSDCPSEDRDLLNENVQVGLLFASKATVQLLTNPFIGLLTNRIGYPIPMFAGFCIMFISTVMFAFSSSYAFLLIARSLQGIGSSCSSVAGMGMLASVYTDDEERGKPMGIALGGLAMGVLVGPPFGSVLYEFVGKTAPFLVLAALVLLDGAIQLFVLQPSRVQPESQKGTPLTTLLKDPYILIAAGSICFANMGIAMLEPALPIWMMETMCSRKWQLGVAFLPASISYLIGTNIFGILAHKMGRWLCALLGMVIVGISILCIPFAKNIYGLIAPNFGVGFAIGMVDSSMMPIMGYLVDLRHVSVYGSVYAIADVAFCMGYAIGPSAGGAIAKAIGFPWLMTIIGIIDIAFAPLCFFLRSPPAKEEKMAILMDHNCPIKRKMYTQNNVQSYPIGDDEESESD

SMILES: CN1[C@@H](CC(=O)c2ccccc2)CCC[C@H]1C[C@H](O)c1ccccc1 [lobeline]
- effect on DA uptake into synaptic vesicles via VMAT2 (VMAT2 [1]): inhibit
- side-effects in clinical trials [2]: bitter taste and nausea

SMILES: CN1[C@@H](CCc2ccccc2)CCC[C@H]1CCc1ccccc1 [lobelane]
- effect on METH self-administration (METH self-administration): dose-dependently decreased
- effect on sucrose-maintained responding [3]: without decreasing

SMILES: Cl.Cl.FCCOc1ccc(CCN2CCN(CCc3ccccc3Cl)CC2)cc1 [Compound 15f, 1-(2-chlorophenethyl)-4-(4-(2-fluoroethoxy)phenethyl)piperazine]
- fold less potent at VMAT2 than 15d (VMAT2 [4]): 32 fold
